According to publication PMC4718068 (Translation, 2013):
pKd: −log10 of the molar value.

Experiments:
[1] = biological target: Ribosomes from E. coli MRE 600 (E. coli MRE 600) (UniProt P0AG67); experiment: stopped-flow fluorescence of mant-nucleotide excited by FRET from Trp of EF-G
EF-G [2] = biological target: EF-G (Escherichia coli, UniProt P0A6M8); experiment: equilibrium titration, Trp fluorescence; assay type: binding
EF-G [3] = biological target: EF-G (Escherichia coli, UniProt P0A6M8, H92A); experiment: equilibrium titration, Trp fluorescence; assay type: binding
Chain of EF-G (Escherichia coli, UniProt P0A6M8, H92A) (P0A6M8 2-704 H92A): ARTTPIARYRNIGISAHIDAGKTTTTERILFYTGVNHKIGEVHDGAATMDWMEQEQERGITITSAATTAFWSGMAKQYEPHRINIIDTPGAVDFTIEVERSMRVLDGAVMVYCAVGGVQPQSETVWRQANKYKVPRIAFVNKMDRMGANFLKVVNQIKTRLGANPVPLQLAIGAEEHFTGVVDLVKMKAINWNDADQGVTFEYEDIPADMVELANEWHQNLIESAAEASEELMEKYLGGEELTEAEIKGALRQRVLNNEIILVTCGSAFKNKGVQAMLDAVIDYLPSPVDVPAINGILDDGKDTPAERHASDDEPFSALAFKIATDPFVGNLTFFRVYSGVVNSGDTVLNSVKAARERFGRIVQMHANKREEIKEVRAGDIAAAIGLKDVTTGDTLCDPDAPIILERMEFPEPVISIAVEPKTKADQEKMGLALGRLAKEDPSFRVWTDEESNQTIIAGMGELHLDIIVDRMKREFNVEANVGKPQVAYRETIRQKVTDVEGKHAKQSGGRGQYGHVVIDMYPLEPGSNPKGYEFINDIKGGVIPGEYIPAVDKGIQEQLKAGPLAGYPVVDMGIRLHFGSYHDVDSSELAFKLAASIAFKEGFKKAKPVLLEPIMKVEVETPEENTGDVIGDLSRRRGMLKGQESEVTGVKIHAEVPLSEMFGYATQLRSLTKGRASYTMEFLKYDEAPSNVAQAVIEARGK

Chain of EF-G (Escherichia coli, UniProt P0A6M8) (P0A6M8 2-704): as the sequence (P0A6M8 2-704 H92A) above, with A91H counted along it

rate of formation of the ribosome–EF-G-mant-GTP complex [1] [s⁻¹]	pKd (EF-G [2])	pKd (EF-G [3])	Compound
1			EF-G(H91A) (enzyme)
	5.70 to 6.00	5.70 to 6.00	Nc1nc2c(ncn2[C@@H]2O[C@H](COP(=O)(O)OP(=O)(O)OP(=O)(O)O)[C@@H](O)[C@H]2O)c(=O)[nH]1 [GTP]
